Like-named read-outs stand apart in the source and are kept apart here.
What was measured:
cotton aphid = test: Insecticidal test on cotton aphid (seedling dip); type: in vivo; details: Aphis gossypii, in Cucumis sativus, 72 h
Procedure: A wettable powder prepared in accordance with Formulation Example 2 was diluted with water to a concentration of an active ingredient of 500 ppm. Cucumber seedlings which had been inoculated with larvae of cotton aphid were dipped in this solution and dried in air. The treated cucumber seedlings were placed in a thermostatic chamber at 25° C. for 3 days, and the live insects were counted for calculation of the mortality by Equation 2. The test was carried out by one series system.

two-spotted spider mites = test: Miticidal test on two-spotted spider mites (seedling dip); type: in vivo, Tetranvchus urticae; details: Glycine max, 312 h, read-out: protective value
Procedure: A wettable powder prepared in accordance with Formulation Example 2 was diluted with water to a concentration of an active ingredient of 500 ppm. Soybean seedlings which had been inoculated with imago two-spotted spider mites were dipped in the solution and dried in air. The treated soybean seedlings were placed in a thermostatic chamber at 25° C. for 13 days, and the number of live mites were assessed for calculation of the protective value by Equation 1. The test was carried out by one series system.

brown rice planthopper = test: Insecticidal test on brown rice planthopper; type: in vivo; details: 144 h
Procedure: A wettable powder prepared in accordance with Formulation Example 2 was diluted with water to a concentration of an active ingredient of 500 ppm. Rice sprouts were dipped in this solution and put in a plastic cup having a capacity of 60 mL. Ten third-instar larvae of brown rice planthopper were released in the cup, the cup was lidded and placed in a thermostatic chamber at 25° C. for 6 days, and the number of dead larvae were counted for calculation of the mortality by Equation 2. The test was carried out by one series system.

diamondback moth = test: Insecticidal test on diamondback moth; type: in vivo; details: Plutella xylostella, 144 h
Procedure: A wettable powder prepared in accordance with Formulation Example 2 was diluted with water to a concentration of an active ingredient of 500 ppm. Cabbage leaves were dipped in this solution and dried in air and then put in a plastic cup having a capacity of 60 mL. 10 second-instar larvae of diamondback moth were released in the cup and the cup was lidded. Then, the cup was placed in a thermostatic chamber at 25° C. for 6 days, and dead moths were counted for calculation of the mortality by Equation 2. The test was carried out by one series system.

cotton bollworm = test: Insecticidal test on cotton bollworm; type: in vivo; details: Helicoverpa armigera, 144 h
Procedure: A wettable powder prepared in accordance with Formulation Example 2 was diluted with water to a concentration of an active ingredient of 500 ppm. Cabbage leaves were dipped in this solution and dried in air and then put in a plastic cup having a capacity of 60 mL. Five hatched larvae of cotton bollworm were released in the cup, and the cup was lidded and placed in a thermostatic chamber at 25° C. for 6 days, and the number of dead larvae were assessed for calculation of the mortality by Equation 2. The test was carried out by two series system.

[1] = 500 ppm active ingredient, soybean seedlings with imago mites dipped, 25° C., 13 days
[2] = 500 ppm active ingredient, cabbage leaves dipped, hatched larvae, 25° C., 6 days, read-out: mortality
[3] = 500 ppm active ingredient, cabbage leaves dipped, second-instar larvae, 25° C., 6 days, read-out: mortality

COc1cc(OC(F)(F)C(F)OC(F)(F)F)nn1-c1cc(SCC(F)(F)F)c(C)cc1F (stereo not drawn) [1-794, 1-{2-fluoro-4-methyl-5-(2,2,2-trifluoroethylthio)phenyl}-5-methoxy-3-{1,1,2-trifluoro-2-(trifluoromethoxy)ethoxy}pyrazole]
≥ 90%: mortality at 500 ppm (cotton aphid) | pest or weed control at 500 ppm (two-spotted spider mites; [1]) | mortality at 500 ppm (brown rice planthopper) | mortality at 500 ppm (diamondback moth; in Brassica oleracea)

CC(=O)Nc1cc(OC(F)(F)C(F)(F)C(F)(F)C(F)(F)C(F)(F)F)nn1-c1cc([S+]([O-])CC(F)(F)F)c(C)cc1F (stereo not drawn) [1-489, 5-acetylamino-1-{2-fluoro-4-methyl-5-(2,2,2-trifluoroethylsulfinyl)phenyl}-3-(1,1,2,2,3,3,4,4,5,5,5-undecafluoropentyloxy)pyrazole]
≥ 90%: pest or weed control at 500 ppm (two-spotted spider mites) | mortality at 500 ppm (cotton bollworm; [2]) | mortality at 500 ppm (diamondback moth; [3])

Cc1cc(F)c(-n2nc(OC(F)(F)C(F)OC(F)(F)F)cc2CF)cc1SCC(F)(F)F (stereo not drawn) [1-1579, 1-{2-fluoro-4-methyl-5-(2,2,2-trifluoroethylthio)phenyl}-5-fluoromethyl-3-{1,1,2-trifluoro-2-(trifluoromethoxy)ethoxy}pyrazole]
≥ 90%: mortality at 500 ppm (cotton aphid) | pest or weed control at 500 ppm (two-spotted spider mites; [1]) | mortality at 500 ppm (brown rice planthopper) | mortality at 500 ppm (diamondback moth; in Brassica oleracea)

Cc1cc(F)c(-n2nc(OCC(F)(F)C(F)(F)F)cc2C)cc1SCC(F)(F)F [1-91, 1-{2-fluoro-4-methyl-5-(2,2,2-trifluoroethylthio)phenyl}-5-methyl-3-(2,2,3,3,3-pentafluoropropoxy)pyrazole]
≥ 90%: mortality at 500 ppm (cotton aphid) | pest or weed control at 500 ppm (two-spotted spider mites; [1]) | mortality at 500 ppm (brown rice planthopper) | mortality at 500 ppm (diamondback moth; in Brassica oleracea)

Cc1cc(F)c(-n2nc(OC(F)(F)C(F)C(F)(F)F)cc2Cl)cc1SCC(F)(F)F (stereo not drawn) [1-253, 5-chloro-1-{2-fluoro-4-methyl-5-(2,2,2-trifluoroethylthio)phenyl}-3-(1,1,2,3,3,3-hexafluoropropoxy)pyrazole]
≥ 90%: mortality at 500 ppm (cotton aphid) | pest or weed control at 500 ppm (two-spotted spider mites; [1]) | mortality at 500 ppm (brown rice planthopper)

Cc1cc(F)c(-n2nc(OC(F)(F)C(F)C(F)(F)F)cc2Cl)cc1[S+]([O-])CC(F)(F)F (stereo not drawn) [1-254, 5-chloro 1-{2-fluoro-4-methyl-5-(2,2,2-trifluoroethylsulfinyl)phenyl}-3-(1,1,2,3,3,3-hexafluoropropoxy)pyrazole]
≥ 90%: mortality at 500 ppm (cotton aphid) | pest or weed control at 500 ppm (two-spotted spider mites; [1]) | mortality at 500 ppm (brown rice planthopper)

CC(=O)Nc1cc(OC(F)(F)C(F)OC(F)(F)C(F)(F)C(F)(F)F)nn1-c1cc(SCC(F)(F)F)c(C)cc1F (stereo not drawn) [1-370, 5-acetylamino-1-{2-fluoro-4-methyl-5-(2,2,2-trifluoroethylthio)phenyl}-3-{1,1,2-trifluoro-2-(heptafluoropropoxy)ethoxy}pyrazole]
≥ 90%: pest or weed control at 500 ppm (two-spotted spider mites) | mortality at 500 ppm (cotton bollworm; [2]) | mortality at 500 ppm (diamondback moth; [3])

CC(=O)Nc1cc(OC(F)(F)C(F)(F)C(F)(F)F)nn1-c1cc([S+]([O-])CC(F)(F)F)c(C)cc1F (stereo not drawn) [1-268, 5-acetylamino-1-{2-fluoro-4-methyl-5-(2,2,2-trifluoroethylsulfinyl)phenyl}-3-(1,1,2,2,3,3,3-heptafluoropropoxy)pyrazole]
≥ 90%: pest or weed control at 500 ppm (two-spotted spider mites) | mortality at 500 ppm (cotton bollworm; [2]) | mortality at 500 ppm (diamondback moth; [3])

CNc1cc(OC(F)(F)C(F)C(F)(F)F)nn1-c1cc(SCC(F)(F)F)c(C)cc1F (stereo not drawn) [1-186, 1-{2-fluoro-4-methyl-5-(2,2,2-trifluoroethylthio)phenyl}-3-(1,1,2,3,3,3-hexafluoropropoxy)-5-methylaminopyrazole]
≥ 90%: mortality at 500 ppm (cotton aphid) | pest or weed control at 500 ppm (two-spotted spider mites; [1]) | mortality at 500 ppm (brown rice planthopper) | mortality at 500 ppm (diamondback moth; in Brassica oleracea)

Cc1cc(F)c(-n2nc(OC(F)(F)C(F)OC(F)(F)F)cc2C(F)F)cc1SCC(F)(F)F (stereo not drawn) [1-1531, 5-difluoromethyl-1-{2-fluoro-4-methyl-5-(2,2,2-trifluoroethylthio)phenyl}-3-{1,1,2-trifluoro-2-(trifluoromethoxy)ethoxy}pyrazole]
≥ 90%: mortality at 500 ppm (cotton aphid) | pest or weed control at 500 ppm (two-spotted spider mites; [1]) | mortality at 500 ppm (brown rice planthopper) | mortality at 500 ppm (diamondback moth; in Brassica oleracea)

Cc1cc(F)c(-n2nc(OC(F)(F)C(F)OC(F)(F)F)cc2C#N)cc1SCC(F)(F)F (stereo not drawn) [1-668, 5-cyano-1-{2-fluoro-4-methyl-5-(2,2,2-trifluoroethylthio)phenyl}-3-{1,1,2-trifluoro-2-(trifluoromethoxy)ethoxy}pyrazole]
≥ 90%: mortality at 500 ppm (cotton aphid) | pest or weed control at 500 ppm (two-spotted spider mites; [1]) | mortality at 500 ppm (brown rice planthopper) | mortality at 500 ppm (diamondback moth; in Brassica oleracea)

CC(=O)Nc1cc(OC(F)(F)C(F)(F)C(F)(F)C(F)(F)C(F)(F)F)nn1-c1cc(SCC(F)(F)F)c(C)cc1F [1-488, 5-acetylamino-1-{2-fluoro-4-methyl-5-(2,2,2-trifluoroethylthio)phenyl}-3-(1,1,2,2,3,3,4,4,5,5,5-undecafluoropentyloxy)pyrazole]
≥ 90%: mortality at 500 ppm (cotton bollworm; [2]) | mortality at 500 ppm (diamondback moth; [3])

Cc1cc(F)c(-n2nc(OCC(F)(F)C(F)(F)F)cc2NC(=O)C(F)(F)F)cc1SCC(F)(F)F [1-29, 1-{2-fluoro-4-methyl-5-(2,2,2-trifluoroethylthio)phenyl}-3-(2,2,3,3,3-pentafluoropropoxy)-5-trifluoroacetylaminopyrazole]
≥ 90%: mortality at 500 ppm (cotton aphid) | pest or weed control at 500 ppm (two-spotted spider mites; [1]) | mortality at 500 ppm (brown rice planthopper) | mortality at 500 ppm (diamondback moth; in Brassica oleracea)

CC(=O)Nc1cc(OCC(F)(F)OC(F)(F)C(F)(F)OC(F)(F)F)nn1-c1cc([S+]([O-])CC(F)(F)F)c(C)cc1F (stereo not drawn) [1-375, 5-acetylamino-3-[2,2-difluoro-2-{2-trifluoromethoxy-(1,1,2,2-tetrafluoroethoxy)}ethoxy]-1-{2-fluoro-4-methyl-5-(2,2,2-trifluoroethylsulfinyl)phenyl}pyrazole]
≥ 90%: pest or weed control at 500 ppm (two-spotted spider mites; [1]) | mortality at 500 ppm (cotton bollworm; in Brassica oleracea) | mortality at 500 ppm (diamondback moth; in Brassica oleracea)

CC(=O)Nc1cc(OC(F)(F)C(F)OC(F)(F)C(F)(F)C(F)(F)F)nn1-c1cc([S+]([O-])CC(F)(F)F)c(C)cc1F (stereo not drawn) [1-371, 5-acetylamino-1-{2-fluoro-4-methyl-5-(2,2,2-trifluoroethylsulfinyl)phenyl}-3-{1,1,2-trifluoro-2-(heptafluoropropoxy)ethoxy}pyrazole]
≥ 90%: pest or weed control at 500 ppm (two-spotted spider mites) | mortality at 500 ppm (cotton bollworm; [2]) | mortality at 500 ppm (diamondback moth; [3])

CC(=O)Nc1cc(OCC(F)(F)OC(F)(F)C(F)(F)OC(F)(F)F)nn1-c1cc(SCC(F)(F)F)c(C)cc1F [1-374, 5-acetylamino-3-[2,2-difluoro-2-{2-trifluoromethoxy-(1,1,2,2-tetrafluoroethoxy)}ethoxy]-1-{2-fluoro-4-methyl-5-(2,2,2-trifluoroethylthio)phenyl}pyrazole]
≥ 90%: pest or weed control at 500 ppm (two-spotted spider mites; [1]) | mortality at 500 ppm (cotton bollworm; in Brassica oleracea) | mortality at 500 ppm (diamondback moth; in Brassica oleracea)

Cc1cc(F)c(-n2nc(OCC(F)(F)C(F)(F)F)cc2C#N)cc1SCC(F)(F)F [1-133, 5-cyano-1-{2-fluoro-4-methyl-5-(2,2,2-trifluoroethylthio)phenyl}-3-(2,2,3,3,3-pentafluoropropoxy)pyrazole]
≥ 90%: mortality at 500 ppm (cotton aphid) | pest or weed control at 500 ppm (two-spotted spider mites; [1]) | mortality at 500 ppm (brown rice planthopper) | mortality at 500 ppm (diamondback moth; in Brassica oleracea)

C#CCNc1cc(OC(F)(F)C(F)OC(F)(F)C(F)(F)C(F)(F)F)nn1-c1cc([S+]([O-])CC(F)(F)F)c(C)cc1F (stereo not drawn) [1-358, 1-{2-fluoro-4-methyl-5-(2,2,2-trifluoroethylsulfinyl)phenyl}-5-(2-propynylamino)-3-{1,1,2-trifluoro-2-(heptafluoropropoxy)ethoxy}pyrazole]
≥ 90%: mortality at 500 ppm (cotton bollworm; [2]) | mortality at 500 ppm (diamondback moth; [3])
